Experimental findings from patent US10980776B2, “Synergistic pharmaceutical combination for the treatment of squamous cell carcinoma of head and neck” (Piramal Enterprises Limited, priority 2011, dated 2021) are described below.

Like-named read-outs stand apart in the source and are kept apart here.

As usually defined, the IC10 is the point of the concentration-response curve where the effect stands at 10%. A high value points to weaker potency. The term IC30 denotes the concentration needed for an effect of 30%. A high value points to weaker potency. In general, IC70 refers to the concentration needed for an effect of 70%. A low value points to an effect from little substance. A word on the IC50: it is the concentration at which inhibition is half-maximal. Usually IC90 stands for the point of the concentration-response curve where the effect stands at 90%.

The subject of assay [1] is FADU cells. Description: CCK-8 cytotoxicity assay, determination of inhibitory concentrations in FADU cells. The format is cell-based, human. To be noted: 72 hr; for IC50 / IC90: Homo sapiens. Here is the method:
(§1) Logarithmically growing cells were plated at a density of 3×10^3 cells/well and allowed to recover overnight. […] After 72 hours, cell toxicity was determined by CCK-8 (Cell Counting Kit-8) reagent (Dojindo Molecular Technologies, Japan); WST-8 (2-(2-methoxy-4-nitrophenyl)-3-(4-nitrophenyl)-5-(2, 4-disulfophenyl)]-2H-tetrazolium, monosodium salt) assay. In accordance with the manufacturer's instructions, 5 μl/well CCK-8 reagent was added and plates were incubated for 2 hours. The toxicity was determined by measuring the absorbance on Tecan Sapphire multi-fluorescence micro-plate reader (Tecan, Germany, GmbH) at a wavelength of 450 nm corrected to 650 nm and normalized to controls.
(§2) CCK-8 allows convenient assays using Dojindo's tetrazolium salt, WST [8[(2-(2-methoxy-4-nitrophenyl)-3-(4-nitrophenyl)-5-(2,4-disulfophenyl)-2H-tetrazolium, monosodium salt], which produces a water-soluble formazan dye upon bioreduction in the presence of an electron carrier, 1-Methoxy PMS. CCK-8 solution is added directly to the cells; no pre-mixing of components is required. CCK-8 is a sensitive nonradioactive colorimetric assay for determining the number of viable cells in cell proliferation and cytotoxicity assays. WST-8 is bio-reduced by cellular dehydrogenases to an orange formazan product that is soluble in tissue culture medium. The amount of formazan produced is directly proportional to the number of living cells. The detection sensitivity of cell proliferation assays using WST-8 is higher than assays using the other tetrazolium salts such as MIT, XTT, MTS or WST-1. Optical Density was determined at measurement wavelength of 450 nm and reference wave length of 630 nm.
(§3) The cells were seeded at a density of 3000 cells/well, in a 200 μL in tissue culture grade 96 well plate and were allowed to recover for 24 hrs in a humidified 5%±0.2 CO2 incubator at 37° C.±0.5° C. […] The final DMSO concentration was 0.5% in wells. Plates were incubated for 48 hrs in humidified 5%±0.2 CO2 incubator at 37±0.5° C. After 48 hrs the plates were removed from CO2 incubator and 5 μL of Cell counting Kit (CCK-8) per well was added. The same plate was kept at 37° C. for 3 hrs, and allowed to come to room temperature. The absorbance at a wavelength of 450 nm was read on Tecan safire reader. The percent cytotoxicity was calculated using the following formula.
A general note: Formazan colour is commonly taken as a measure of viable cells.

The test system of assay [2] is Detroit-562 cells. Kind of assay: CCK-8 cytotoxicity assay, determination of inhibitory concentrations in Detroit-562 cells. The format is cell-based. To be noted: 72 hr; for IC50 / IC90: Homo sapiens. How it is done: as §1, §2, §3
Assay [3] deals with SCC-25 cells. Description: Combination studies (single and sequential combination dosing), % cytotoxicity in SCC-25 cells. To be noted: Homo sapiens, SCC-25, SCC-25. How it is done: as §1, §2
Sorafenib in the following dose of final concentration 0.18 μM and compound A in the following doses of final concentration 0.1 μM, 0.4 μM and 4.1 μM were analyzed in single dose and in all possible combinations of the dose range for the two anticancer agents mentioned above. The sequence of treatment is as follows; the SCC-25 cells were treated with sorafenib for 0 to 24 hrs. At the end of 24 hrs the cells were washed two times with plain MEM (minimum essential media) medium. Fresh MEM with 10% serum (200 μL/well) was added, followed by treatment with compound A from 24 hrs to 96 hrs.
Sorafenib in the following dose of final concentration 0.18 μM and compound B in the following doses of final concentration 0.2 μM, 1.1 μM and 4.8 μM were analyzed in single dose and in all possible combinations of the dose range for the two anticancer agents mentioned above. The sequence of treatment is as follows; the SCC-25 cells were treated with sorafenib for 0 to 24 hrs. At the end of 24 hrs the cells were washed two times with plain MEM medium. Fresh MEM with 10% serum (200 μL/well) was added, followed by treatment with compound B from 24 hrs to 96 hrs.
Lapatinib in the following dose of final concentration 0.2 μM and compound A in the following doses of final concentration 0.2 μM, 0.5 μM and 3.3 μM were analyzed in single dose and in all possible combinations of the dose range for the two drugs mentioned above. The sequence of treatment is as follows; the SCC-25 cells were treated with lapatinib for 0 to 24 hrs. At the end of 24 hrs the cells were washed two times with plain MEM medium. Fresh MEM with 10% serum (200 μL/well) was added, followed by treatment with compound A from 24 hrs to 96 hrs.
Lapatinib in the following dose of final concentration 0.2 μM and compound B in the following doses of final concentration 0.2 μM, 1.1 μM and 4.8 μM were analyzed in single dose and in all possible combinations of the dose range for the two drugs mentioned above. The sequence of treatment is as follows; the SCC-25 cells were treated with lapatinib for 0 to 24 hrs. At the end of 24 hrs the cells were washed two times with plain MEM medium. Fresh MEM with 10% serum (200 μL/well) was added, followed by treatment with compound A from 24 hrs to 96 hrs.

Assay [4] relates to SCC-25 cells. Kind of assay: CCK-8 cytotoxicity assay, determination of inhibitory concentrations in SCC-25 cells. Type of assay: cell-based. To be noted: for IC90 / IC50: Homo sapiens. Here is the method: as §1, §2, §3
Assay [5] relates to FADU cells. Description: cells. To be noted: Homo sapiens.
Assay [6] relates to Detroit-562 cells. Description: Combination studies (single and sequential combination dosing), % cytotoxicity in Detroit-562 cells. To be noted: Homo sapiens, Detroit 562, Detroit-562. How it is done:
as §1, §2
Sorafenib in the following dose of final concentration 1.8 μM and compound A in the following doses of final concentration 0.5 μM, 1.3 μM and 12.1 μM were analyzed in single dose and in all possible combinations of the dose range for the two anticancer agents mentioned above. The sequence of treatment is as follows; Detroit-562 cells were treated with sorafenib for 0 to 24 hrs. At the end of 24 hrs the cells were washed two times with plain MEM medium. Fresh MEM with 10% serum (200 μL/well) was added, followed by treatment with compound A from 24 hrs to 96 hrs.
Sorafenib in the following dose of final concentration 1.8 μM and compound B in the following doses of final concentration 2.7 μM, 14.1 μM and 25.2 μM were analyzed in single dose and in all possible combinations of the dose range for the two anticancer agents mentioned above. The sequence of treatment is as follows; the Detroit-562 cells were treated with sorafenib for 0 to 24 hrs. At the end of 24 hrs the cells were washed two times with plain MEM medium. Fresh MEM with 10% serum (200 μL/well) was added, followed by treatment with compound B from 24 hrs to 96 hrs.
Lapatinib in the following dose of final concentration 1 μM and compound A in the following doses of final concentration 0.5 μM, 1.3 μM and 12.1 μM were analyzed in single dose and in all possible combinations of the dose range for the two anticancer agents mentioned above. The sequence of treatment is as follows; the Detroit-562 cells were treated with lapatinib for 0 to 24 hrs. At the end of 24 hrs the cells were washed two times with plain MEM medium. Fresh MEM with 10% serum (200 μL/well) was added, followed by treatment with compound A from 24 hrs to 96 hrs.
Lapatinib in the following dose of final concentration 1.0 μM and compound B in the following doses of final concentration 2.7 μM, 14.1 μM and 25.2 μM were analyzed in single dose and in all possible combinations of the dose range for the two drugs mentioned above. The sequence of treatment is as follows; the Detroit-562 cells were treated with lapatinib for 0 to 24 hrs. At the end of 24 hrs the cells were washed two times with plain MEM medium. Fresh MEM with 10% serum (200 μL/well) was added, followed by treatment with compound A from 24 hrs to 96 hrs.

In the assay on FADU cells [1], `CC(=O)O[C@@]12CO[C@@H]1C[C@H](O)[C@@]1(C)C(=O)[C@H](O)C3=C(C)[C@@H](OC(=O)[C@H](O)[C@@H](NC(=O)OC(C)(C)C)c4ccccc4)C[C@@](O)([C@@H](OC(=O)c4ccccc4)[C@H]21)C3(C)C` [Docetaxel] had an IC10 of 0.003 µM, an IC30 of 0.06 µM, an IC70 of 0.71 µM and an IC50 of 0.16 µM. Moreover, it took 35.6 µM to reach the 90% level in the assay with FADU cells [1] (IC90). For the same molecule, in the assay with Detroit-562 cells [2], the IC10 was determined as 0.009 µM, the IC30 came to 0.3 µM, the concentration for an effect of 70% (IC70) is 8.7 µM and the IC50 was found to be 0.85 µM. The same molecule yielded an IC90 with Detroit-562 cells [2] of 21.8 µM.
In the assay on FADU cells [1], `C#Cc1cccc(Nc2ncnc3cc(OCCOC)c(OCCOC)cc23)c1` [Erlotinib] showed an IC30 of 0.9 µM, an IC70 of 30.7 µM, an IC50 of 10.2 µM and an IC90 of 63 µM. In the assay on Detroit-562 cells [2], the IC30 was determined as 1.4 µM, the IC70 stood at 6.3 µM, the concentration for half-maximal inhibition (IC50) amounted to 2.3 µM and the 90% effect level (IC90) was put at 10.7 µM.
For `CS(=O)(=O)CCNCc1ccc(-c2ccc3ncnc(Nc4ccc(OCc5cccc(F)c5)c(Cl)c4)c3c2)o1` [Lapatinib, N-(3-chloro-4-{[(3-fluorophenyl)methyl]oxy}phenyl)-6-[5-({[2-(methylsulfonyl)ethyl]amino}methyl)-2-furanyl]-4-quinazolinaminebis(4-methylbenzenesulfonate)monohydrate], the cytotoxicity at 0.2 µM in the assay with SCC-25 cells [3] (single agent at IC30 (lapatinib 0.2 μM; compound A 0.2 μM)) and in the assay with SCC-25 cells [3] (single agent at IC30 (lapatinib 0.2 μM; compound B 0.2 μM)) was 17% throughout. The IC30 in the assay on FADU cells [1] came out at 0.8 µM; in the assay with SCC-25 cells [4] (SCC-25 cells, 72 hr), 0.2 µM; in the assay on Detroit-562 cells [2], 1.0 µM. Moreover, the concentration for an effect of 70% (IC70) is 8.7 µM in the assay with FADU cells [1]; 3.3 µM in the assay with SCC-25 cells [4] (SCC-25 cells, 72 hr); 7.6 µM in the assay with Detroit-562 cells [2]. In addition, the IC50 with FADU cells [1] turned out to be 2.6 µM; in the assay on SCC-25 cells [4] (SCC-25 cells, 72 hr, read-out: IC50), 0.5 µM; in the assay on Detroit-562 cells [2] it was 3.9 µM. The IC90 in the assay on FADU cells [1] was found to be 14.3 µM; in the assay with SCC-25 cells [4] (SCC-25 cells, 72 hr) it was 9.9 µM; in the assay with Detroit-562 cells [2], 12.6 µM. For the same molecule, the cytotoxicity at 0.8 µM in the assay with FADU cells [5] (single agent at IC30 (lapatinib 0.8 μM; compound A 0.2 μM)) and with FADU cells [5] (single agent at IC30 (lapatinib 0.8 μM; compound B 2.3 μM)) was 19% each time. Also, the cytotoxicity at 1 µM with Detroit-562 cells [6] (single agent at IC30 (lapatinib 1 μM; compound A 0.5 μM)) and in the assay with Detroit-562 cells [6] (single agent at IC30 (lapatinib 1.0 μM; compound B 2.7 μM)) was 16% each time.
For the molecule `CNC(=O)c1cc(Oc2ccc(NC(=O)Nc3ccc(Cl)c(C(F)(F)F)c3)cc2)ccn1.Cc1ccc(S(=O)(=O)O)cc1` [Sorafenib, 4-(4-{3-[4-chloro-3-(trifluoromethyl)phenyl]ureido}phenoxy)N^2-methylpyridine-2-carboxamide-4-methylbenzenesulfonate], the cytotoxicity at 0.18 µM in the assay with SCC-25 cells [3] (single agent at IC30 (sorafenib 0.18 μM; compound A 0.1 μM)) and in the assay on SCC-25 cells [3] (single agent at IC30 (sorafenib 0.18 μM; compound B 0.2 μM)) was 13% in each case. Moreover, the IC30 with FADU cells [1] is 3.9 µM; in the assay on SCC-25 cells [4] (SCC-25 cells, 72 hr), 0.18 µM; in the assay with Detroit-562 cells [2] it was 1.8 µM. Besides, the IC70 was 14.8 µM in the assay with FADU cells [1]; 6.8 µM in the assay on SCC-25 cells [4] (SCC-25 cells, 72 hr); 11.2 µM in the assay with Detroit-562 cells [2]. The IC50 in the assay on FADU cells [1] is 8.4 µM; in the assay on SCC-25 cells [4] (SCC-25, 72 h), 2.7 µM; with Detroit-562 cells [2], 6.1 µM. In addition, the 90% effect concentration (IC90) in the assay on FADU cells [1] is 30.6 µM; in the assay on SCC-25 cells [4] (SCC-25 cells, 72 hr) it was 11.7 µM; in the assay with Detroit-562 cells [2], 15.3 µM. For the same molecule, the cytotoxicity at 3.9 µM with FADU cells [5] (single agent at IC30 (sorafenib 3.9 μM; compound A 0.2 μM)) and in the assay on FADU cells [5] (single agent at IC30 (sorafenib 3.9 μM; compound B 2.3 μM)) was 21% throughout. In addition, the cytotoxicity at 1.8 µM with Detroit-562 cells [6] (single agent at IC30 (sorafenib 1.8 μM; compound A 0.5 μM)) amounted to 14%; in the assay with Detroit-562 cells [6] (single agent at IC30 (sorafenib 1.8 μM; compound B 2.7 μM)) it was 13%.
